# PubChem BioAssay AID179 (DTP/NCI, 2004)
# Active and inactive are the calls of the source.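 The calls were made as follows: active = compounds giving half or more protection of infected cells from virus-caused growth loss, again on retest; inactive = the rest.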
# Tested on: CEM cells HIV-1 protection, formazan growth assay
# Assay: NCI AIDS Antiviral Assay
# Conditions: for IC50: measured here: growth of uninfected CEM cells
# How it was run: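 Five concentrations of each compound were applied to infected and uninfected human CEM cells. Protection from HIV-1 was judged from growth measured with a soluble formazan assay.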
SMILES,EC50 [µM],IC50 [µM],outcome
CC(=O)OCC1(C)ON=C2CCCCC21 (centres undefined),> 1170,> 1170,–
CCOC(=O)C(NC(=O)Nc1ccc(Cl)cc1)(OC)C(F)(F)F (centres undefined),–,–,inactive
CCOC(=O)C1(N)CCc2[nH][nH]c(=O)c2C1 (centres undefined),> 200,> 200,–
C=CNC(=S)N/C=C(\C#N)S(=O)(=O)c1ccc(C)cc1,> 200,> 200,–
Cc1cn(CC2=NCCN2)c(=O)[nH]c1=O,> 200,> 200,–
CC(=O)[C@@]1(O)CC[C@H]2[C@@H]3C[C@H](C)C4=CC(=O)C=C[C@]4(C)[C@@]3(F)[C@@H](O)C[C@@]21C,–,–,inactive
Cn1ccnc1CCc1ccc(F)cc1F,> 200,> 200,–
COc1ccc(/C=C/C(=O)/C=C/c2ccc(OC)cc2)cc1,> 200,72.4,–
O=[N+]([O-])c1ccc2nc(/C=C(\O)c3ccccc3)c(/C=C(\O)c3ccccc3)nc2c1,> 200,20,–
COC(=O)[C@@H]1CN(C(=O)c2ccccc2)C(=O)N1C(=O)OCc1ccccc1,> 200,> 200,–
Nc1nc(Cl)c(/C=N\O)c(NCC2(CO)CCC2)n1,> 20,11.5,–
CN(C)c1cc[n+](-c2nc(/N=C(\[O-])C(F)(F)F)nc3c2ncn3C2CC(O)C(CO)O2)cc1 (centres undefined),> 200,> 200,–
OC(c1cc2ccccc2o1)c1cc2ccccc2s1 (centres undefined),> 200,51.3,–
CC(=O)OC1C[C@@H](C)C2(C[C@H](O)c3ccoc3)C(=O)OC[C@]13C2CCC(O)C31CO1 (some centres undefined),> 200,> 200,–
COC(=O)C(Cc1nc2ccc(Cl)cc2[nH]c1=O)C(=O)C(=O)Nc1cc(C)ccc1C (centres undefined),> 214,> 214,–
CC(=O)Nc1ccc(S(=O)(=O)N/N=C/c2cc(I)cc([N+](=O)[O-])c2O)cc1,> 501,79.4,–
CC(=O)/C=C/c1ccco1,> 26.3,> 26.3,–
Cc1ccc(C2=Nn3c(nc4sc5c(c4c3=O)CCCC5)SC2)cc1,> 200,> 200,–
COC(=O)c1cc(CC2Cc3cc4c(cc3C2)CCC4)cc2c1CCC2,> 200,> 200,–
Cc1cn(C2CC(CO)N(CCO)O2)c(=O)[nH]c1=O (centres undefined),> 200,> 200,–
CCCCNC(=O)/C(=C\c1ccc(OC)c(OC)c1)NC(=O)c1ccccc1,> 200,> 200,–
CC(C)=NOC(=O)Nc1cccc2c1OCO2,> 200,> 200,–

SMILES,EC50 [µM],IC50 [µM],outcome
O=c1c(C(c2ccc(Cl)cc2)c2c(O)c3ccccc3n(-c3ccccc3)c2=O)c(O)c2ccccc2n1-c1ccccc1,> 8.71,> 8.71,–
C=CCCCN1C(=O)CCC1=O,–,–,inactive
COc1cc(-c2ccc(N=Nc3cc(S(=O)(=O)O)c4cccc(S(=O)(=O)O)c4c3N)c(OC)c2)ccc1N=Nc1cc(S(=O)(=O)O)c2cccc(S(=O)(=O)O)c2c1N,14.1,89.1,–
O=Cc1ccccc1OCCOc1cc(OCCOc2ccccc2C=O)c(OCCOc2ccccc2C=O)cc1OCCOc1ccccc1C=O,> 1.41,> 1.41,–
COc1ccc(CN2CCC/C=C/CC(Cl)(Cl)C2=O)cc1,> 110,57.5,–
N#CC1=CNc2sccc2S1(=O)=O,> 200,> 200,–
CN(C)C(=S)/N=c1\sn(C)/c(=N\C(=S)N(C)C)n1C,–,–,inactive
O=C1NC(=Nc2ccccc2Cl)SC1C(=O)Nc1ccc([N+](=O)[O-])cc1[N+](=O)[O-] (centres undefined),> 115,> 115,–
CN(C)c1cccc2c(S(=O)O)cccc12,> 200,> 200,–
CCc1noc2ccccc12,> 339,> 339,–
CCCCCCCc1cc(OC(=O)c2c(C)cc(OC)cc2O)cc(O)c1C(=O)O,> 162,83.2,–
O=c1nc(SSc2ccn(C3OC(CO)C(O)C3O)c(=O)n2)ccn1C1OC(CO)C(O)C1O (centres undefined),> 200,2.63,–
NC1=NN(c2ccccc2)C2(O)c3ccncc3C3=NN(c4ccccc4)C(=O)C132 (centres undefined),> 200,> 200,–
O=S1(=O)OC(c2cc(Br)c(O)c(Br)c2)(c2cc(Br)c(O)c(Br)c2)c2c(Br)c(Br)c(Br)c(Br)c21,–,–,inactive
CCc1n[nH]c(=O)n1N1C(=O)C2CC=CCC2C1=O (centres undefined),> 200,> 200,–
C1=C\C=C\C2OC2/C=C/1 (centres undefined),> 224,112,–
N#C/C(=C\N1CCNC1=S)C(=O)c1ccc2ccccc2c1,> 200,151,–
Cc1ccc(NC(=O)C(=O)CC(=O)c2sc(Nc3c(C)cccc3C)nc2C)cc1C,> 200,> 200,–
O=C(NCCCl)N(O)C(=O)Nc1ccccc1,> 200,126,–
COc1cc(CNC(=O)CCCCCCCCCCSSCCCCCCCCCCC(=O)NCc2ccc(O)c(OC)c2)ccc1O,> 200,–,–
CC(=O)OCC(=O)[C@@]1(O)CC[C@H]2[C@@H]3CCC4=CC(=O)C=C[C@]4(C)[C@@]3(F)[C@@H](O)C[C@@]21C,–,–,inactive
O=C(O)CC1CC2CC(=O)C1C2 (centres undefined),> 200,> 200,–

SMILES,EC50 [µM],IC50 [µM],outcome
C=CCN(N=O)C(=O)NCCCC(NC(C)=O)C(=O)NCc1ccccc1 (centres undefined),> 661,> 661,–
CC1(C)CC(=O)C2=C(C1)NC(SCC(=O)O)=C(C#N)C2c1ccc(Br)cc1 (centres undefined),> 200,178,–
COc1cccc(OC)c1NC1=NCCO1,> 200,120,–
COc1cccc2c(NCCCN(C)C)c3c([N+](=O)[O-])ccc(OC)c3nc12,> 2,0.257,–
CN1CN(c2ccccc2)C2(CCN(CC(C)(c3ccc(F)cc3)C3OCCCO3)CC2)C1=O (centres undefined),> 200,107,–
Cc1ccc(S(=O)(=O)N(/N=C/C=C/c2ccccc2)c2nnc(-c3ccccc3)c(-c3ccccc3)n2)cc1,> 18.6,10,–
C/C(=N/N(C=O)C[n+]1ccccc1)C(CN(CC(C)C)CC(C)C)C(=O)Nc1ccc(C)cc1C (centres undefined),> 69.2,> 69.2,–
CCOc1cc(/C=C2\N=C(c3ccccc3)OC2=O)ccc1O,> 23.4,> 23.4,–
COc1ccc(SCc2cc(OCc3ccccc3)c(OCc3ccccc3)c(OCc3ccccc3)c2)cc1,> 200,> 200,–
O=C(O)c1c(CC(Cc2ccc3c(c2)CCCC3)C(=O)O)ccc2c1CCCC2 (centres undefined),> 200,141,–
Cc1ccc(S(=O)(=O)NNS(C)(=O)=O)cc1,> 955,646,–
CCc1c(C)c(C#N)c(=S)n(C2OC(COC(C)=O)C(OC(C)=O)C(OC(C)=O)C2OC(C)=O)c1C (centres undefined),> 200,> 200,–
CCCC[P+](CCCC)(CCCC)C(C(=O)OC)C(C(=O)OC)=C1SC(C(=O)OC)=C(C(=O)OC)S1 (centres undefined),> 200,> 200,–
COc1cccc(NC(=O)CSc2nnc(-c3ccc(N=Cc4ccc(Cl)cc4)cc3)o2)c1,> 75.9,25.1,–
O=C(/C=C/CC(O)(c1ccccc1)c1ccccc1)Nc1ccccc1Cl,> 19.1,> 19.1,–
COc1cc(/C=N\NS(=O)(=O)c2ccc(N)cc2)ccc1O,> 295,209,–
S=C(N/N=C/c1ccccc1Cl)Nc1ccccc1,> 200,135,–
COc1ccc2nc3c([N+](=O)[O-])ccc4c3c(c2c1)N=CN4CCCN(C)C,0.141,0.468,–
NC(=S)N/N=C(\CCC(=O)Nc1ccccc1[N+](=O)[O-])CC(=O)c1ccco1,> 234,> 234,–
CC1CC(=O)NC2CC1C2(C)C (centres undefined),> 1480,> 1480,–
C=CC12CN3C4C3C1C1(CCC42)C(=O)N(COCC[Si](C)(C)C)c2ccccc21 (centres undefined),> 63.1,25.7,–
Cc1cc(S(=O)(=O)Nc2nc(Nc3ccc(Cl)cc3)nn2C)c(S)cc1Cl,> 200,83.2,–

SMILES,EC50 [µM],IC50 [µM],outcome
COc1ccc(NC(C)=O)cc1C1CCC(=O)N1 (centres undefined),–,–,inactive
C=C1CC2(CCOc3ccccc32)OC1=O (centres undefined),> 871,4.37,–
C(=C\c1cnc2ccccc2n1)/c1ccc2c(c1)OCO2,> 200,> 200,–
CC1=C(C(=O)Nc2ccccc2C)C(c2ccc(N(C)C)cc2)C(C(=O)Nc2ccccc2C)=C(C)N1,> 14.5,> 14.5,–
CCOC(=O)NC(Nc1ncn(C(NC(=O)OCC)(C(F)(F)F)C(F)(F)F)n1)(C(F)(F)F)C(F)(F)F,> 200,> 200,–
CCOC(=O)C1=CCC2c3[nH]c4ccccc4c3CCN2C1=O (centres undefined),> 16.2,9.12,–
C=C1C2CCC3C(CCC4C35CCC[C@]4(C)CN3CCO[C@H]35)(C2)[C@@H]1O (some centres undefined),–,–,inactive
OC1CCC(O)[C@H]2[C@@H]1[C@@H]1S[C@H]2c2ccccc21 (some centres undefined),> 200,> 200,–
COc1cc2cc(C(=O)N3CC(CCl)c4c3cc([N+](=O)[O-])c3ccccc43)[nH]c2c(OC)c1OC (centres undefined),> 10,2.4,–
O=C(/C=C\c1cccc2ccccc12)c1ccc(F)cc1,> 7.24,> 7.24,–
COc1cc([C@H]2CC(=O)C[C@H](c3cc(OC)c(OC)c(OC)c3)C23C(=O)c2ccccc2C3=O)cc(OC)c1OC,> 200,> 200,–
CCOC(=O)Cc1cc(=O)oc2c3c(cc(OC(C)C)c12)O[C@H](C)[C@@H](C)C3=O,> 200,195,–
CCOC(=O)[C@H](Cc1ccccc1)NC(=O)c1nc[nH]c1[N+](=O)[O-],> 537,372,–
Nc1c(N=Nc2ccc(-c3ccc(N=Nc4c(S(=O)(=O)O)cc5cc(S(=O)(=O)O)c(N=Nc6ccccc6)c(O)c5c4N)cc3)cc2)ccc2c(S(=O)(=O)O)cccc12,–,–,inactive
CC(C)NC(=O)NCCc1c[nH]c2ccccc12,> 200,> 200,–
O=c1nc(NC(c2ccccc2)(c2ccccc2)c2ccccc2)ccn1CCCl,–,–,inactive
O=C1CCC2(O1)c1ccc(O)cc1Oc1cc(O)ccc12,> 200,> 200,–
COc1ccc(/C(Cl)=C(\C=N/O)c2ccc(OC)c(OC)c2)cc1OC,> 13.8,> 13.8,–
COc1ccc(NC(=O)C(C#N)=C(SC)SC)cc1,> 200,7.94,–
